Patent US20260265245A1, “AROMATIC HETEROCYCLIC DERIVATIVE HAVING GLP-1 RECEPTOR AGONIST ACTIVITY” (Shionogi & Co., Ltd., priority 2021, published 2026)

Molecular target: T1, Human GLP-1 receptor (Homo sapiens, UniProt P43220)
T1 construct: expressed in transfected cells
Experiment: Measurement of GLP-1 receptor agonist activity (cAMP assay)
Type: cell-based
Settings: hGLP-1R/CHO-K1 cells; for Emax: cAMP with 2 nM human GLP-1 (7-36) = 100%, DMSO only = 0%; for EC50: increase in cAMP concentration as index, 37° C., 1 hour
Method: Test Example 1: Measurement of GLP-1 Receptor Agonist Activity
Human GLP-1 receptor stably expressing cells (hGLP-1R/CHO-K1 cells) are cultured in an a-MEM medium (Sigma) containing 10% FBS (Hyclone), 2% GlutaMAX (Gibco), 1% G418 (Nacalai Tesque), and 1% Penicillin-Streptomycin Mixed Solution (Sigma) at 37° C. under 5% CO2 conditions, and recovered by treating a 10 fold diluted 5.0 g/l-trypsin/5.3 mmol/l-EDTA solution (Nacalai Tesque) and cryopreserved.
A DMSO solution containing the compound of the present invention or human GLP-1 (7-36) (Phoenix Pharmaceuticals) is dispensed into a 384-well microplate (Greiner) at 62.5 nL/well, and in addition, 400 μM Forskolin (Nacalai Tesque) is dispensed therein at 7.5 nL/well. Subsequently, the frozen GLP-1 R/CHO-K1 cells are thawed in a thermostatic bath at 37° C., suspended in HBSS buffer containing 0.1% BSA (Sigma), 20 mM HEPES (GIBCO), 0.1 mM IBMX (Sigma), and 0.2 mM RO20-1724 (Calbiochem) at 2×10^4 cells/mL, and the cell suspension is added at 6 μL/well. The solution was incubated at 37° C. for 1 hour and intracellular cAMP concentration is measured using CAMP Gs dynamic kit (Cisbio) according to the protocol attached to the product. Specifically, a cAMP-d2/Anti-cAMP-Cryptate (1/1) mixed solution is added in a total amount of 6 μL/well, the mixture is incubated at room temperature for 1 hour, and time-resolved fluorescence is measured using PHERAstar (BMG Labtech).
Assuming that the CAMP concentration when human GLP-1 (7-36) is dispensed to a final concentration of 2 nM is 100% and the CAMP concentration when only DMSO is dispensed is 0%, the 50% effective concentration (EC50) and the maximum effect (Emax) of the compound of the present invention are calculated using an increase in the CAMP concentration as an index, using TIBCO Spotfire (TIBCO Software). The dilution concentration or the dilution solvent are changed as necessary.
The compounds of the present invention were tested essentially as described above.

T1 sequence (P43220 24-463): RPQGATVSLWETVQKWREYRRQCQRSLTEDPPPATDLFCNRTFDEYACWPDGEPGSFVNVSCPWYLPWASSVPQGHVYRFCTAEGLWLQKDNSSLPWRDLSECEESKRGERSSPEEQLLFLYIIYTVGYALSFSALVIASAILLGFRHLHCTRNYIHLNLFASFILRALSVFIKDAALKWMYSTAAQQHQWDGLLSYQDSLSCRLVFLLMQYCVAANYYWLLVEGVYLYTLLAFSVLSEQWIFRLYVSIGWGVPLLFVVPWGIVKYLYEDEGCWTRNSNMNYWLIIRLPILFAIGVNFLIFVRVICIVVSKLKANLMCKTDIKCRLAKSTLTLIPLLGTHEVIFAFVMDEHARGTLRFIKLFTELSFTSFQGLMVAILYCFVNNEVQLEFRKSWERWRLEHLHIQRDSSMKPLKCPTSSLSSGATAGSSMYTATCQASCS

| Emax [%] | EC50 [nM] | Structure (SMILES) |
| --- | --- | --- |
| 96 | 0.151 | C[C@H]1c2nc(OCc3ccc(Cl)cc3F)c(Cl)cc2CCN1Cc1nc(Br)c(/C=C/C(=O)O)n1C[C@@H]1CCO1 [I - 010] |
| 98.7 | 16.2 | Oc1nnc(-c2c(Cl)nc(CN3CCC(c4cccc(OCc5ccc(Cl)cc5F)n4)CC3)n2C[C@@H]2CCO2)o1 [I - 005] |
| 92 | 0.138 | C[C@]1(c2ccc(Cl)cc2F)Oc2cccc(C3CCN(Cc4nc(Cl)c(/C=C/C(=O)O)n4C[C@@H]4CCO4)CC3)c2O1 [I - 007] |
| 107 | 0.401 | O=C(O)/C=C/c1c(Br)nc(CN2CCC(c3cccc(OCc4ccc(Cl)cc4F)n3)CC2)n1C[C@@H]1CCO1 [I - 003] |
| 105 | 0.368 | C[C@H]1c2cc(OCc3ccc(Cl)cc3F)c(C(F)(F)F)cc2CCN1Cc1nc(Br)c(/C=C/C(=O)O)n1C[C@@H]1CCO1 [I - 008] |
| 101 | 0.686 | C[C@H]1c2nc(OCc3ccc(Cl)cc3F)c(C(F)(F)F)cc2CCN1Cc1ncc(/C=C/C(=O)O)n1C[C@@H]1CCO1 [I - 009] |
| 117 | 0.283 | C[C@H]1c2nc(OCc3ccc(Cl)cc3F)c(C(F)F)cc2CCN1Cc1nc(Cl)c(/C=C/C(=O)O)n1C[C@@H]1CCO1 [I - 012] |
| 97 | 7 | Oc1nnc(-c2c(Br)nc(CN3CCC(c4cccc(OCc5ccc(Cl)cc5F)n4)CC3)n2C[C@@H]2CCO2)o1 [I - 004] |
| 99.7 | 0.0965 | C[C@H]1c2nc(OCc3ccc(Cl)cc3F)c(C(F)(F)F)cc2CCN1Cc1nc(Cl)c(/C=C/C(=O)O)n1C[C@@H]1CCO1 [I - 011] |
| 118 | 1.41 | O=C(O)/C=C/c1c(Cl)nc(CN2CCC(c3cccc(OCc4ccc(Cl)cc4F)n3)CC2)n1C[C@@H]1CCO1 [I - 006] |
| 63.7 | 181 | Cn1c(/C=C/C(=O)O)cnc1CN1CCC(c2cccc(OCc3ccc(Cl)cc3F)n2)CC1 [I - 001] |
| 85 | 31.5 | Cn1c(CN2CCC(c3cccc(OCc4ccc(Cl)cc4F)n3)CC2)nc(Br)c1/C=C/C(=O)O [I - 002] |
